# Data as given in the NIST ThermoML archive (doi:10.1016/j.jct.2009.11.011).
# Several values for one entry are separate records, joined by “and”; a condition that tells them apart may be missing. Identical values can stand only once. ± gives the expanded uncertainty stated by the source.
# Key:
# [1] = for vapor or sublimation pressure: Liquid, Ebulliometric method (Recirculating still)
# [2] = Molar enthalpy of transition or fusion; conditions: Crystal; Adiabatic calorimetry
# [3] = molar heat capacity at saturation pressure
structure (smiles),measurement,setting,value
"c1cnc2c(c1)ccc1cccnc12 [1,10-phenanthroline]",vapor or sublimation pressure,[1]; 523.28 K,2 ± 0.01 kPa and 2.001 ± 0.01 kPa
same,vapor or sublimation pressure,[1]; 531.9 K,2.668 ± 0.011 kPa
same,vapor or sublimation pressure,[1]; 554.04 K,5.325 ± 0.011 kPa
same,vapor or sublimation pressure,[1]; 568.22 K,8.008 ± 0.012 kPa
same,vapor or sublimation pressure,[1]; 578.69 K,10.65 ± 0.012 kPa
same,vapor or sublimation pressure,[1]; 587.24 K,13.33 ± 0.013 kPa
same,vapor or sublimation pressure,[1]; 595.98 K,16.64 ± 0.014 kPa
same,vapor or sublimation pressure,[1]; 603.36 K,19.95 ± 0.015 kPa
same,Triple point temperature,"[1]; Crystal, Adiabatic calorimetry",391.71 ± 0.05 K
same,Molar enthalpy of transition or fusion,[2],3.705 ± 0.00406 kcal/mol
same,molar heat capacity,"[3]; 5 K, Crystal, Vacuum adiabatic calorimetry",1.26 ± 0.02 J/K/mol
same,molar heat capacity,"[3]; 5.659 K, Crystal, Vacuum adiabatic calorimetry",1.78 ± 0.03 J/K/mol
same,molar heat capacity,"[3]; 6.394 K, Crystal, Vacuum adiabatic calorimetry",2.35 ± 0.03 J/K/mol
same,molar heat capacity,"[3]; 7.405 K, Crystal, Vacuum adiabatic calorimetry",3.18 ± 0.04 J/K/mol
same,molar heat capacity,"[3]; 8.419 K, Crystal, Vacuum adiabatic calorimetry",4.13 ± 0.05 J/K/mol
same,molar heat capacity,"[3]; 9.46 K, Crystal, Vacuum adiabatic calorimetry",5.19 ± 0.06 J/K/mol
same,molar heat capacity,"[3]; 10 K, Crystal, Vacuum adiabatic calorimetry",5.74 ± 0.06 J/K/mol
same,molar heat capacity,"[3]; 10.55 K, Crystal, Vacuum adiabatic calorimetry",6.31 ± 0.06 J/K/mol
same,molar heat capacity,"[3]; 11.75 K, Crystal, Vacuum adiabatic calorimetry",7.62 ± 0.07 J/K/mol
same,molar heat capacity,"[3]; 13.08 K, Crystal, Vacuum adiabatic calorimetry",9.121 ± 0.07 J/K/mol
same,molar heat capacity,"[3]; 14.53 K, Crystal, Vacuum adiabatic calorimetry",10.68 ± 0.083 J/K/mol
same,molar heat capacity,"[3]; 16.13 K, Crystal, Vacuum adiabatic calorimetry",12.55 ± 0.091 J/K/mol
same,molar heat capacity,"[3]; 17.88 K, Crystal, Vacuum adiabatic calorimetry",14.51 ± 0.1 J/K/mol
same,molar heat capacity,"[3]; 19.8 K, Crystal, Vacuum adiabatic calorimetry",16.6 ± 0.11 J/K/mol
same,molar heat capacity,"[3]; 20 K, Crystal, Vacuum adiabatic calorimetry",16.82 ± 0.11 J/K/mol
same,molar heat capacity,"[3]; 21.93 K, Crystal, Vacuum adiabatic calorimetry",18.87 ± 0.11 J/K/mol
same,molar heat capacity,"[3]; 24.3 K, Crystal, Vacuum adiabatic calorimetry",21.41 ± 0.11 J/K/mol
same,molar heat capacity,"[3]; 26.92 K, Crystal, Vacuum adiabatic calorimetry",24.1 ± 0.11 J/K/mol
same,molar heat capacity,"[3]; 29.85 K, Crystal, Vacuum adiabatic calorimetry",26.95 ± 0.11 J/K/mol
same,molar heat capacity,"[3]; 30 K, Crystal, Vacuum adiabatic calorimetry",27.1 ± 0.1 J/K/mol
same,molar heat capacity,"[3]; 33.1 K, Crystal, Vacuum adiabatic calorimetry",29.99 ± 0.1 J/K/mol
same,molar heat capacity,"[3]; 36.75 K, Crystal, Vacuum adiabatic calorimetry",33.23 ± 0.11 J/K/mol
same,molar heat capacity,"[3]; 40 K, Crystal, Vacuum adiabatic calorimetry",35.93 ± 0.12 J/K/mol
same,molar heat capacity,"[3]; 40.82 K, Crystal, Vacuum adiabatic calorimetry",36.58 ± 0.12 J/K/mol
same,molar heat capacity,"[3]; 45.34 K, Crystal, Vacuum adiabatic calorimetry",40.14 ± 0.12 J/K/mol
same,molar heat capacity,"[3]; 50 K, Crystal, Vacuum adiabatic calorimetry",43.64 ± 0.12 J/K/mol
same,molar heat capacity,"[3]; 50.36 K, Crystal, Vacuum adiabatic calorimetry",43.96 ± 0.12 J/K/mol
same,molar heat capacity,"[3]; 55.93 K, Crystal, Vacuum adiabatic calorimetry",47.63 ± 0.13 J/K/mol
same,molar heat capacity,"[3]; 57.69 K, Crystal, Vacuum adiabatic calorimetry",48.9 ± 0.14 J/K/mol
same,molar heat capacity,"[3]; 60 K, Crystal, Vacuum adiabatic calorimetry",50.34 ± 0.14 J/K/mol
same,molar heat capacity,"[3]; 60.42 K, Crystal, Vacuum adiabatic calorimetry",50.6 ± 0.14 J/K/mol
same,molar heat capacity,"[3]; 63.28 K, Crystal, Vacuum adiabatic calorimetry",52.36 ± 0.14 J/K/mol
same,molar heat capacity,"[3]; 66.47 K, Crystal, Vacuum adiabatic calorimetry",54.41 ± 0.15 J/K/mol
same,molar heat capacity,"[3]; 69.78 K, Crystal, Vacuum adiabatic calorimetry",56.39 ± 0.15 J/K/mol
same,molar heat capacity,"[3]; 70 K, Crystal, Vacuum adiabatic calorimetry",56.51 ± 0.15 J/K/mol
same,molar heat capacity,"[3]; 73.24 K, Crystal, Vacuum adiabatic calorimetry",58.45 ± 0.16 J/K/mol
same,molar heat capacity,"[3]; 76.94 K, Crystal, Vacuum adiabatic calorimetry",60.52 ± 0.16 J/K/mol
same,molar heat capacity,"[3]; 80 K, Crystal, Vacuum adiabatic calorimetry",62.29 ± 0.17 J/K/mol
same,molar heat capacity,"[3]; 80.6 K, Crystal, Vacuum adiabatic calorimetry",62.63 ± 0.17 J/K/mol
same,molar heat capacity,"[3]; 84.91 K, Crystal, Vacuum adiabatic calorimetry",65 ± 0.17 J/K/mol
same,molar heat capacity,"[3]; 88.8 K, Crystal, Vacuum adiabatic calorimetry",67.21 ± 0.17 J/K/mol
same,molar heat capacity,"[3]; 90 K, Crystal, Vacuum adiabatic calorimetry",67.87 ± 0.27 J/K/mol
same,molar heat capacity,"[3]; 97.84 K, Crystal, Vacuum adiabatic calorimetry",72.09 ± 0.27 J/K/mol
same,molar heat capacity,"[3]; 100 K, Crystal, Vacuum adiabatic calorimetry",73.23 ± 0.27 J/K/mol
same,molar heat capacity,"[3]; 100.26 K, Crystal, Vacuum adiabatic calorimetry",73.38 ± 0.27 J/K/mol
same,molar heat capacity,"[3]; 109.98 K, Crystal, Vacuum adiabatic calorimetry",78.65 ± 0.28 J/K/mol
same,molar heat capacity,"[3]; 119.96 K, Crystal, Vacuum adiabatic calorimetry",84.22 ± 0.28 J/K/mol
same,molar heat capacity,"[3]; 120 K, Crystal, Vacuum adiabatic calorimetry",84.24 ± 0.28 J/K/mol
same,molar heat capacity,"[3]; 131.01 K, Crystal, Vacuum adiabatic calorimetry",90.44 ± 0.29 J/K/mol
same,molar heat capacity,"[3]; 140 K, Crystal, Vacuum adiabatic calorimetry",95.58 ± 0.3 J/K/mol
same,molar heat capacity,"[3]; 143.07 K, Crystal, Vacuum adiabatic calorimetry",97.35 ± 0.3 J/K/mol
same,molar heat capacity,"[3]; 155.1 K, Crystal, Vacuum adiabatic calorimetry",104.48 ± 0.31 J/K/mol
same,molar heat capacity,"[3]; 160 K, Crystal, Vacuum adiabatic calorimetry",107.41 ± 0.31 J/K/mol
same,molar heat capacity,"[3]; 167.1 K, Crystal, Vacuum adiabatic calorimetry",111.7 ± 0.32 J/K/mol
same,molar heat capacity,"[3]; 179.08 K, Crystal, Vacuum adiabatic calorimetry",119.1 ± 0.32 J/K/mol
same,molar heat capacity,"[3]; 180 K, Crystal, Vacuum adiabatic calorimetry",119.68 ± 0.32 J/K/mol
same,molar heat capacity,"[3]; 191.08 K, Crystal, Vacuum adiabatic calorimetry",126.69 ± 0.32 J/K/mol
same,molar heat capacity,"[3]; 200 K, Crystal, Vacuum adiabatic calorimetry",132.42 ± 0.33 J/K/mol
same,molar heat capacity,"[3]; 203.14 K, Crystal, Vacuum adiabatic calorimetry",134.46 ± 0.33 J/K/mol
same,molar heat capacity,"[3]; 215.25 K, Crystal, Vacuum adiabatic calorimetry",142.45 ± 0.34 J/K/mol
same,molar heat capacity,"[3]; 220 K, Crystal, Vacuum adiabatic calorimetry",145.57 ± 0.35 J/K/mol
same,molar heat capacity,"[3]; 227.38 K, Crystal, Vacuum adiabatic calorimetry",150.47 ± 0.35 J/K/mol
same,molar heat capacity,"[3]; 239.55 K, Crystal, Vacuum adiabatic calorimetry",158.67 ± 0.36 J/K/mol
same,molar heat capacity,"[3]; 240 K, Crystal, Vacuum adiabatic calorimetry",158.97 ± 0.36 J/K/mol
same,molar heat capacity,"[3]; 251.77 K, Crystal, Vacuum adiabatic calorimetry",167.01 ± 0.37 J/K/mol
same,molar heat capacity,"[3]; 260 K, Crystal, Vacuum adiabatic calorimetry",172.69 ± 0.37 J/K/mol
same,molar heat capacity,"[3]; 264.02 K, Crystal, Vacuum adiabatic calorimetry",175.49 ± 0.37 J/K/mol
same,molar heat capacity,"[3]; 276.3 K, Crystal, Vacuum adiabatic calorimetry",183.86 ± 0.38 J/K/mol
same,molar heat capacity,"[3]; 280 K, Crystal, Vacuum adiabatic calorimetry",186.36 ± 0.39 J/K/mol
same,molar heat capacity,"[3]; 288.6 K, Crystal, Vacuum adiabatic calorimetry",192.35 ± 0.39 J/K/mol
same,molar heat capacity,"[3]; 289.46 K, Crystal, Vacuum adiabatic calorimetry",192.8 ± 0.39 J/K/mol
same,molar heat capacity,"[3]; 298.15 K, Crystal, Vacuum adiabatic calorimetry",198.74 ± 0.4 J/K/mol
same,molar heat capacity,"[3]; 300 K, Crystal, Vacuum adiabatic calorimetry",200 ± 0.4 J/K/mol
same,molar heat capacity,"[3]; 300.24 K, Crystal, Vacuum adiabatic calorimetry",200.19 ± 0.4 J/K/mol
same,molar heat capacity,"[3]; 312.29 K, Crystal, Vacuum adiabatic calorimetry",208.49 ± 0.41 J/K/mol
same,molar heat capacity,"[3]; 320 K, Crystal, Vacuum adiabatic calorimetry",213.76 ± 0.42 J/K/mol
same,molar heat capacity,"[3]; 324.53 K, Crystal, Vacuum adiabatic calorimetry",216.87 ± 0.42 J/K/mol
same,molar heat capacity,"[3]; 336.89 K, Crystal, Vacuum adiabatic calorimetry",225.26 ± 0.42 J/K/mol
same,molar heat capacity,"[3]; 336.98 K, Crystal, Vacuum adiabatic calorimetry",225.23 ± 0.42 J/K/mol
same,molar heat capacity,"[3]; 340 K, Crystal, Vacuum adiabatic calorimetry",227.24 ± 0.42 J/K/mol
same,molar heat capacity,"[3]; 348.97 K, Crystal, Vacuum adiabatic calorimetry",233.42 ± 0.43 J/K/mol
same,molar heat capacity,"[3]; 349.32 K, Crystal, Vacuum adiabatic calorimetry",233.65 ± 0.43 J/K/mol
same,molar heat capacity,"[3]; 360 K, Crystal, Vacuum adiabatic calorimetry",240.63 ± 0.44 J/K/mol
same,molar heat capacity,"[3]; 361.05 K, Crystal, Vacuum adiabatic calorimetry",241.49 ± 0.44 J/K/mol
same,molar heat capacity,"[3]; 373.19 K, Crystal, Vacuum adiabatic calorimetry",249.78 ± 0.45 J/K/mol
same,molar heat capacity,"[3]; 375.19 K, Liquid, Vacuum adiabatic calorimetry",297.88 ± 0.5 J/K/mol
same,molar heat capacity,"[3]; 380 K, Crystal, Vacuum adiabatic calorimetry",253.68 ± 0.46 J/K/mol
same,molar heat capacity,"[3]; 380 K, Liquid, Vacuum adiabatic calorimetry",300.22 ± 0.5 J/K/mol
same,molar heat capacity,"[3]; 381.3 K, Crystal, Vacuum adiabatic calorimetry",256.64 ± 0.46 J/K/mol
same,molar heat capacity,"[3]; 382.84 K, Liquid, Vacuum adiabatic calorimetry",301.57 ± 0.5 J/K/mol
same,molar heat capacity,"[3]; 383.75 K, Crystal, Vacuum adiabatic calorimetry",260.04 ± 0.46 J/K/mol
same,molar heat capacity,"[3]; 391.52 K, Liquid, Vacuum adiabatic calorimetry",305.71 ± 0.51 J/K/mol
same,molar heat capacity,"[3]; 391.71 K, Crystal, Vacuum adiabatic calorimetry",261.46 ± 0.47 J/K/mol
same,molar heat capacity,"[3]; 391.71 K, Liquid, Vacuum adiabatic calorimetry",305.81 ± 0.51 J/K/mol
same,molar heat capacity,"[3]; 397.93 K, Liquid, Vacuum adiabatic calorimetry",308.79 ± 0.51 J/K/mol
same,molar heat capacity,"[3]; 400 K, Liquid, Vacuum adiabatic calorimetry",309.76 ± 0.51 J/K/mol
same,molar heat capacity,"[3]; 400.3 K, Liquid, Vacuum adiabatic calorimetry",309.93 ± 0.51 J/K/mol
same,molar heat capacity,"[3]; 402.69 K, Liquid, Vacuum adiabatic calorimetry",311.03 ± 0.51 J/K/mol
same,molar heat capacity,"[3]; 404.9 K, Liquid, Vacuum adiabatic calorimetry",312.06 ± 0.52 J/K/mol
same,molar heat capacity,"[3]; 413.55 K, Liquid, Vacuum adiabatic calorimetry",316.13 ± 0.52 J/K/mol
same,molar heat capacity,"[3]; 416.42 K, Liquid, Vacuum adiabatic calorimetry",317.49 ± 0.52 J/K/mol
same,molar heat capacity,"[3]; 420 K, Liquid, Vacuum adiabatic calorimetry",319.14 ± 0.52 J/K/mol
same,molar heat capacity,"[3]; 429.03 K, Liquid, Vacuum adiabatic calorimetry",323.3 ± 0.52 J/K/mol
same,molar heat capacity,"[3]; 439.59 K, Liquid, Vacuum adiabatic calorimetry",328.19 ± 0.53 J/K/mol
same,molar heat capacity,"[3]; 440 K, Liquid, Vacuum adiabatic calorimetry",328.39 ± 0.53 J/K/mol
same,molar heat capacity,"[3]; 460 K, Liquid",337.52 ± 3.4 J/K/mol
same,molar heat capacity,"[3]; 480 K, Liquid",346.29 ± 3.5 J/K/mol
same,molar heat capacity,"[3]; 500 K, Liquid",355 ± 3.6 J/K/mol
same,molar heat capacity,"[3]; 520 K, Liquid",363.5 ± 3.7 J/K/mol
same,molar heat capacity,"[3]; 540 K, Liquid",371.9 ± 3.7 J/K/mol
same,molar heat capacity,"[3]; 560 K, Liquid",380.1 ± 3.8 J/K/mol
same,molar heat capacity,"[3]; 580 K, Liquid",388.2 ± 3.9 J/K/mol
same,molar heat capacity,"[3]; 600 K, Liquid",396 ± 4 J/K/mol
